For assay [1], the system named is Kato III cells. Briefly: Cell cycle analysis and cell growth, Kato III. The format is cell-based, human. As to conditions: for cell cycle arrest: Kato III pretreated for 4 days. The protocol: Kato III cells, a human gastric tumor cell line, was cultivated in RPMI 1640 medium (Invitrogen) containing 20% FCS (Perbio) and 2 mM Glutamax (Invitrogen) at 37°C and 5% CO2, with or without cytostatic compounds. 5-FU (Neofluor from NeoCorp AG) was tested at a concentration of 10 or 100 ng/ml, and oxaliplatin (Hospira) was tested at a concentration of 50 or 500 ng/ml. […] Cells were harvested with EDTA/trypsin, washed and analysed.
Cell cycle stages were determined based on measurement of cellular DNA content. This allows one to discriminate between cells in the G1-, S- or G2-phase of the cell cycle. In the S-phase DNA duplication occurs whereas in the G2-phase cells grow and prepare for mitosis. Cell cycle analysis was done using the CycleTEST PLUS DNA Reagent Kit from BD Biosciences following the manufacturer's protocol. Flow cytometry acquisition and analysis were performed by using BD FACS CantoII (BD Biosciences) and FlowJo (Tree Star) software.
Kato III cells were pretreated for 4 days with Irinotecan or Docetaxel and analysed for CLDN18.2 expression and cell cycle arrest.

Assay [2] relates to CLDN18.2. Description: CLDN18.2 expression after 3 days pretreatment, Kato III. Format: cell-based, human. As to conditions: Kato III pretreated 3 days; Irinotecan 1000 ng/ml, Docetaxel 5 ng/ml, Cisplatin 2000 ng/ml; vs medium cultivated cells.
For assay [3], the system named is Kato III cells. Briefly: Viable cells after 3 days pretreatment, Kato III. Format: cell-based, human. Conditions: Kato III pretreated 3 days; Irinotecan 1000 ng/ml, Docetaxel 5 ng/ml, Cisplatin 2000 ng/ml; vs medium cultivated cells. As for the experimental part: (§1) Peripheral blood mononuclear cells (PBMCs) including NK cells, monocytes, […] or other effector cells from healthy human donors were purified by Ficoll Hypaque density centrifugation. Washed effector cells were seeded in X-Vivo medium. Kato III cells which express CLDN18.2 endogenously and are of gastric origin were used as target cells in this setting. Target cells stably expressed luciferase, lucifer yellow, which is oxidized by viable cells only.

The test system of assay [4] is Kato III cells. Briefly: IMAB362 induced ADCC on chemotherapy pretreated Kato III. Format: cell-based, human. Conditions: Kato III pretreated 3 days; Irinotecan 1000 ng/ml, Docetaxel 5 ng/ml, Cisplatin 2000 ng/ml. As for the experimental part: as §1
The test system of another assay is MiaPaCa-2-LVT xenografts. Briefly: Subcutaneous MiaPaCa-2-LVT xenograft model. Format: in vivo, Hsd:Athymic Nude-Foxn1^nu mice. Conditions: up to 100 mg/kg gemcitabine without additional IMAB362 treatment.
In assay [5] the test system is established MiaPaCa-2-LVT xenograft tumors. Description: Established MiaPaCa-2-LVT xenograft tumors. Format: in vivo, Hsd:Athymic Nude-Foxn1^nu mice. As to conditions: gemcitabine 2x 150 mg/kg per week, independent from IMAB362 treatment.
For assay [6], the system named is CLDN18.2. Description: CLDN18.2 expression after chemotherapeutic pretreatment (RT-PCR, western blot), DANG. The format is cell-based, human. Conditions: Gem 1 ng/ml or Gem 1 ng/ml + Ox 10 ng/ml, 2 days, vs untreated. As for the experimental part:
For RNA isolation from pancreatic cancer cell lines, cells were seeded in 10 cm dishes and grown for 2-3 days until 80% confluent. RNA was isolated according to instructions supplied with the RNeasy® Mini Kit (Qiagen). cDNA preparation was performed following manufacturers instructions provided with the SuperScript® III First Strand kit (Invitrogen). RNA and cDNA samples were stored at -80°C.
Quantitative analysis of CLDN18.2 transcripts was performed by amplifying oligo(dT)-primed cDNAs in a 40 cycle PCR reaction using PCR primers #5054s (5'-[…]-3') and #5060as (5'-[…]-3') differentiating between CLDN18.1 and CLDN18.2 isoforms. The reaction was prepared with SYBR Green (QuantiTect SYBR Green PCR Kit, Qiagen), which intercalates in double stranded DNA. The reactions and measurements were performed using the ABI-PRISM7900 Sequence Detection System instrument and software (Applied Biosystems).
The relative expression levels of CLDN18 transcripts was computed using ΔΔCT calculation with respect to the house keeping gene HPRT.
For isolation of proteins of pancreatic cancer cell lines, cells were seeded in 10 cm dishes and grown for 2-3 days until 80% confluent. […] Protein concentration was measured in a spectrophotometer (Absorption at 280nm) and samples were stored at -80°C until use. […]
In general terms: Immunoblotting shows a protein as a band on a membrane.

The test system of assay [7] is DANG. Description: Cell cycle analysis, DANG. Format: cell-based, human. As to conditions: Gem 2 ng/ml, two days. The protocol:
Cells were plated in six-well plates, and 5-6 hours later chemotherapeutic agents were added for either 24 h 48 h or 3 days. Cells floating in the medium were combined with the adherent cell layer, which was trypsinized. Cells were washed. Either cell cycle analysis was started directly or cell surface staining was done before as described above. Cells are resuspended in 1 ml PBS and added to 3 ml 4% PFA. After 15 min fixation of cells at room temperature cells are pelleted and washed. For RNAse treatment cells were resuspended in 200 µl RNAse (10000 U/ml) plus 0.05% Triton X-100 and incubated for 30 min at 37°C. 1 ml PBS was added and samples were centrifuged and resuspended in 200 µl PBS/PJ 50 µg/ml. At least 30 min later samples were ready to be analyzed by flow cytometry. Cell cycle phase distribution was determined using FlowJo software to analyze DNA content histograms.

The next assay has as its system BxPC3-LVT xenografts. Description: Subcutaneous BxPC3-LVT xenograft model. The format is in vivo, Hsd:Athymic Nude-Foxn1^nu mice. Conditions: up to 100 mg/kg gemcitabine without additional IMAB362 treatment.
Assay [8] relates to DANG. Briefly: IMAB362-mediated ADCC on chemotherapy pretreated DANG. Conditions: DANG pretreated 2 days, Gem 1 ng/ml or Gem 1 ng/ml + Ox 10 ng/ml; vs untreated. Format: cell-based, human. The protocol: Pancreatic cancer target cells were seeded two days in advance in flasks to obtain 80-90% confluent cultures on the day ADCC started. […] NUGC-4 sub 10cH11 subE10 Luci#2 cells (8000 cells/well) were seeded in addition as positive controls in all assays. Cells were cultivated for 4-6 h before addition of antibody and purified PBMCs.
PBMCs were prepared from fresh human buffy coat obtained from healthy donors. About 3x 20-25 ml blood was diluted (1:2) with PBS and carefully layered on 4x 15 ml Ficol-Paque Plus (GE Healthcare) in 50 ml Falcon tubes. Gradients were centrifuged (25 min, 700 g). […] The pellets were resuspended in 50 ml PBS/2 mM EDTA and cells were counted. […]
The next day, 10 µl 8% Triton X100/PBS solution was added to the lysis control wells and 10 µl PBS in all other wells. […] Luminescence resulting from the oxidation of […] by the luciferase of viable cells was measured using a microplate-reader (Infinite200, Tecan, Switzerland). Percentage of cellular cytotoxicity was calculated using the following formula: Specific killing (%) = 100−[(RLUsample−RLUtriton)/(RLUmedium ctrl−RLUtriton)×100] […]
On the day ADCC started, the protocol described above was followed and cell surface expression of CLDN18 was determined in FACS analysis as described above.

With `O=c1[nH]cc(F)c(=O)[nH]1` [5-FU, 5-fluoro-1H-pyrimidine-2,4-dione], in the assay on Kato III cells [1] (Kato III, 5-FU 10 or 100 ng/ml, oxaliplatin 50 or 500 ng/ml, 96 hours), the “cell cycle phase distribution” value is recorded as “blocked predominantly in the S-phase”.
For the compound `N.N.[Cl][Pt][Cl]` [Cisplatin, cis-diamminedichloroplatinum(II)], the claudin18.2 expression result in the assay with CLDN18.2 [2] is reported as “increased”. Also, in the assay with Kato III cells [3], the “level of viable cells” value was “lower level of viable cells”. In the assay with Kato III cells [4], the “potency of IMAB362 to induce ADCC” value is recorded as “augmented”.
Turning to `CC(=O)O[C@@]12CO[C@@H]1C[C@H](O)[C@@]1(C)C(=O)[C@H](O)C3=C(C)[C@@H](OC(=O)[C@H](O)[C@@H](NC(=O)OC(C)(C)C)c4ccccc4)C[C@@](O)([C@@H](OC(=O)c4ccccc4)[C@H]21)C3(C)C` [Docetaxel, 1,7β,10β-trihydroxy-9-oxo-5β,20-epoxytax-11-ene-2α,4,13α-triyl 4-acetate 2-benzoate 13-{(2R,3S)-3-[(tert-butoxycarbonyl)-amino]-2-hydroxy-3-phenylpropanoate}], in the assay with Kato III cells [1], the cell cycle arrest entry was “cell cycle arrest in the G2-phase”. The claudin18.2 expression entry in the assay on CLDN18.2 [2] is “increased”. In the assay with Kato III cells [3], the “level of viable cells” value was “lower level of viable cells”. Moreover, the “potency of IMAB362 to induce ADCC” value in the assay with Kato III cells [4] is “augmented”.
For `CCc1c2c(nc3ccc(OC(=O)N4CCC(N5CCCCC5)CC4)cc13)-c1cc3c(c(=O)n1C2)COC(=O)[C@]3(O)CC` [Irinotecan, (S)-4,11-diethyl-3,4,12,14-tetrahydro-4-hydroxy-3,14-dioxo1H-pyrano[3',4':6,7]-indolizino[1,2-b]quinolin-9-yl-[1,4'-bipiperidine]-1'-carboxylate], the cell cycle arrest result with Kato III cells [1] is on record as “cell cycle arrest in the S/G2-phase”. In the assay on Kato III cells [3], the “level of viable cells” value was “lower level of viable cells”. For the same compound, in the assay with Kato III cells [4], the “potency of IMAB362 to induce ADCC” value is given as “augmented”.
Take `Nc1ccn([C@@H]2O[C@H](CO)[C@@H](O)C2(F)F)c(=O)n1` [gemcitabine, 4-amino-1-(2-deoxy-2,2-difluoro-β-D-erythro-pentofuranosyl)pyrimidin-2(1H)-one]: the “therapeutic effect on xenograft” value with MiaPaCa-2-LVT xenografts and in the assay with BxPC3-LVT xenografts was “no significant therapeutic effect” each time. For the same compound, in [5], the tumor growth entry is listed as “strongly inhibited in tumor growth”. Further, the “mRNA and protein levels of CLDN18.2” value in the assay on CLDN18.2 [6] is “increased mRNA and protein levels”. Besides, the cell cycle arrest entry with DANG [7] was “cell cycle arrest in S-Phase”. Further, the “susceptibility for IMAB362 mediated ADCC” value in the assay on DANG [8] was “higher susceptibility”.

The values above are taken from EP2958945B1, “COMBINATION THERAPY INVOLVING ANTIBODIES AGAINST CLAUDIN 18.2 FOR TREATMENT OF CANCER” (Astellas Pharma Inc., priority 2013, dated 2014).
